{"source": "paper PMC3412845", "about": "“Waking Action of Ursodeoxycholic Acid (UDCA) Involves Histamine and GABAA Receptor Block” (PLoS ONE, 2012)", "key": {"[1]": {"test_system": "cultured hypothalamic neurons", "test": "Microelectrode array (MEA) recordings of cultured hypothalamic neurons", "type": "cell-based, mouse", "protocol": "Primary dissociated cultures of posterior hypothalamus were prepared from newborn mice according to the protocols previously described, [43]. […] Recordings were done between 11th-21st day after plating. […] Signals from all 60 electrodes were simultaneously sampled at 25 kHz, visualized and stored using the standard software […] provided by Multi Channel Systems. Spike detection and analysis was performed offline with the software […] (RESULT Medizinische […], Germany), which uses the agreement coefficient “Cohen's kappa” (κ) to assess the degree of spike and burst synchrony for selected pairs of electrodes. […] In order to describe the distribution of kappa across the whole MEA, we calculated the mean of all kappa-values obtained for pairs of “active” electrodes. At the beginning of experiments the basal medium was replaced by a magnesium-free HEPES-based recording solution (see above) and measurements were started after a 20 min adaptation phase. Every measurement comprised three recordings - control, test substance and washout (second control) - each two minutes long and separated by an intermediate period of 30 seconds."}, "[2]": {"test_system": "GABAA receptors of HDC−/− TMN neurons", "test": "GABA-evoked whole-cell currents in TMN neurons from HDC−/− mice", "type": "cell-based, mouse", "conditions": "read-out: IC50 of inhibition of maximal GABA (0.5 mM) responses; adult HDC−/− mice, n = 5", "protocol": "Recordings from histaminergic neurons in male Wistar rat (22–26 day old) or 30–60 day old mouse (SV129, histidine decarboxylase deficient HDC−/− or their wild type littermates) hypothalamic slices were performed as previously described. Slices were obtained between 9 and 11 a.m. In the beginning of whole-cell voltage clamp recordings TMN neurons were identified with the help of DIC microscopy and electrophysiological criteria as previously described. Inhibitory postsynaptic currents (IPSCs) were evoked by local stimulation through a bipolar stainless-steel stimulating electrode (50 µm; WPI, UK). The stimulation of axonal endings coming to TMN from ventrolateral preoptic area (VLPO) was done as described in [22]. […] Individual neurons were separated by vibrodissociation after brief preincubation with papain from the hypothalamic slices of mice or rats and identified as TMN neurons according to their size and shape. Identification was confirmed post hoc with the single-cell RT-PCR (all data presented in the manuscript were obtained from histidine decarboxylase-expressing neurons), [40]. TMN neurons from HDC−/− mice were identified by the expression of peripherin [16]. Whole-cell voltage-clamp recordings from isolated neurons were done with an EPC-9 amplifier and TIDA for Windows (HEKA, Lambrecht, Germany) at room temperature. Membrane potentials were not corrected for liquid junction potential (5.6 mV, calculated with LJPCalc, Barry, 1994). The intracellular solution was composed of (in mM) 140 KCl, 2 MgCl2, 0.5 CaCl2, 5 EGTA, 2 ATP and 10 HEPES (pH 7.2 adjusted with NaOH). A fast perfusion technique was used for application of ligands and modulators of fast ionotropic receptors, [41]. […] EC50 is the ligand concentration producing a half-maximal response, [ligand] is ligand concentration, and n is the Hill slope. Hill coefficients were obtained from the slope of the log/log plot of the dose-response curves. […] Steady-state amplitudes of the responses were used for the construction of dose-response plots if not mentioned otherwise."}, "β3γ2L GABAA receptors": {"molecular_target": "T1, β3γ2L GABAA receptors (UniProt P22723+P28472)", "T1 construct": "expressed in transfected cells; host or cells: HEK293", "T1 sequence (P28472 26-473)": "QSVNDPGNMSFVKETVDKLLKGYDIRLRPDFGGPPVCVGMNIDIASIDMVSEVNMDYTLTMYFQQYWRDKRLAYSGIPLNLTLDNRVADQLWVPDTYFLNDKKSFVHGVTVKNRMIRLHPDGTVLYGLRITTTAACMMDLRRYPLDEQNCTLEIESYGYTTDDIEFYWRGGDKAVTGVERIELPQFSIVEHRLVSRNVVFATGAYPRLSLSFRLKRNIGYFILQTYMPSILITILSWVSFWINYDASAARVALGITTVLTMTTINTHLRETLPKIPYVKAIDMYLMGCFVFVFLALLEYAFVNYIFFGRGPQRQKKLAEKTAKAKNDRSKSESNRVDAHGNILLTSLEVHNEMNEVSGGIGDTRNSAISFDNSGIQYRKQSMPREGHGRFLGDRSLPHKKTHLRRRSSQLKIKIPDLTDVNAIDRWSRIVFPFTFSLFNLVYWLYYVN", "T1 sequence (P22723 39-474)": "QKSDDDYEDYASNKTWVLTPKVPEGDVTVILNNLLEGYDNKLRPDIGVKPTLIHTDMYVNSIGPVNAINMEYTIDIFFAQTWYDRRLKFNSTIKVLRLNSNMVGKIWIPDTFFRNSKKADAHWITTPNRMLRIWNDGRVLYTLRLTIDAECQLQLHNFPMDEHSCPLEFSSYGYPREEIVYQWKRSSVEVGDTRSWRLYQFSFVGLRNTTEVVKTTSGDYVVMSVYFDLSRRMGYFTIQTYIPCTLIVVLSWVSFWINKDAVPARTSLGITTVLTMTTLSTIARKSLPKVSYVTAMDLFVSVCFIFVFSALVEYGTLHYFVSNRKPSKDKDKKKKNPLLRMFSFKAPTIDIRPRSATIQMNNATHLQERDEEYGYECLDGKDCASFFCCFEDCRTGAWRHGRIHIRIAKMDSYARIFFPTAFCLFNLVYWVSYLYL", "test": "Patch-clamp of recombinant β3γ2L receptors in HEK293 cells, histamine-evoked currents", "type": "cell-based, human β3, mouse γ2L", "conditions": "histamine 5 mM", "protocol": "(§1) HEK 293 cells were obtained from DSM (Deutsche Sammlung von Mikroorganismen und Zellkulturen GmbH, DSM, Braunschweig). They were grown and maintained according to published standard protocols. Briefly, cells were grown in minimal essential medium supplemented with 10% fetal bovine serum, 100units/ml penicillin and streptomycin and 2 mM L-glutamine and splitted once per week. Semiconfluent cells were transfected on the third day after splitting with the help of Lipofectamine 2000 (Invitrogen), recordings were done 48–72 hrs after transfection.\n(§2) The GABAAR subunit cDNAs, generously donated by G.Gisselmann (rat α1, mouse γ2L, rat β1, β2 and human β3 [26]) and J.H. Steinbach (rat α1V256S [28] and rat α1Q241L [44]), were subcloned into pcDNA3 (Invitrogen, Karlsruhe, Germany) and applied in a ratio 1∶1∶1 for the α1βxγ2L receptor and 1∶1 for α1β3 or β3γ2L receptors. […] For each receptor type patch clamp recordings were obtained from at least three separate transfections. Whole-cell patch clamp recordings were done in a similar extracellular solution as for the native cells (see above) except that the concentration of MgCl2 was reduced to 1.2 mM. Intracellular electrodes contained 140 mM CsCl (instead of KCl), pH adjusted with CsOH. The voltage was held at −40 mV."}, "[3]": {"molecular_target": "T2, α1V256Sβ2γ2L GABAA receptors (UniProt P22723+P62813+P63138, V283S)", "T2 construct": "expressed in transfected cells; host or cells: HEK293", "T2 sequence (P62813 28-455 V283S)": "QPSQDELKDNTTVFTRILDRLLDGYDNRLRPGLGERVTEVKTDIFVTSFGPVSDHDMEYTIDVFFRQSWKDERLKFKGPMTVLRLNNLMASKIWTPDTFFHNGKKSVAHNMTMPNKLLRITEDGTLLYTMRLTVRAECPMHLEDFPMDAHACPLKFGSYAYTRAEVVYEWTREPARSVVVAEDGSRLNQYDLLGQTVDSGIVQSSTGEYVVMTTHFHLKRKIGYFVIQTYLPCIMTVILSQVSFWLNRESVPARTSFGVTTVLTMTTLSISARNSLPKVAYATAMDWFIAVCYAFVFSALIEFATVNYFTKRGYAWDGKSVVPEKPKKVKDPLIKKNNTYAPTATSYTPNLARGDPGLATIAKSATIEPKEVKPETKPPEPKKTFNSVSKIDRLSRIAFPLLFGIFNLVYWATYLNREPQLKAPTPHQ", "T2 sequence (P63138 25-474 limits assumed)": "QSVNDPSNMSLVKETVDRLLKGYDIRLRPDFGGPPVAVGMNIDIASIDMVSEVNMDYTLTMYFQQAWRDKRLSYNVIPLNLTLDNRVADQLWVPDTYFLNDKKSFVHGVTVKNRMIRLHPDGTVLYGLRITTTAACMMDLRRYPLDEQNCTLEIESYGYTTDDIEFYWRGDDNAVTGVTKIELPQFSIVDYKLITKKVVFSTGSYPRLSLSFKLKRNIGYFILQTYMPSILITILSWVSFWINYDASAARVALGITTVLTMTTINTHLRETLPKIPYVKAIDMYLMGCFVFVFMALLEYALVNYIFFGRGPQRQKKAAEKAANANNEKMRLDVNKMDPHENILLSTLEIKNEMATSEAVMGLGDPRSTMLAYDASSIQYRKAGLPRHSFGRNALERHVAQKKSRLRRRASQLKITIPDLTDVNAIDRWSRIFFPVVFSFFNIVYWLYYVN", "T2 sequence (P22723 39-474)": "as the sequence (P22723 39-474) above", "test": "Patch-clamp of mutant α1V256Sβ2γ2L GABAAR in HEK293 cells", "type": "cell-based, rat α1V256S, rat β2, mouse γ2L", "protocol": "as §1, §2"}, "[4]": {"design": "method as in PMID 11248487", "conditions": "volunteers (men), single oral dose ∼12 mg/kg; cited from earlier work"}, "TGR5": {"test_system": "TGR5", "design": "method as in PMID 12524422", "conditions": "cited from earlier work"}}, "data": [{"smiles": "C[C@H](CCC(=O)O)[C@H]1CC[C@H]2[C@@H]3[C@@H](O)C[C@@H]4C[C@H](O)CC[C@]4(C)[C@H]3CC[C@]12C", "note": "[UDCA, ursodeoxycholic acid]", "values": [{"measurement": "synchronicity of firing within the hypothalamic network (Cohen's kappa)", "setting": "[1]; UDCA", "value": "increased"}, {"measurement": "firing frequency", "setting": "[1]; UDCA 10, 30 or 100 µM", "value": "not affected"}, {"measurement": "effect on synchronization in the presence of gabazine", "setting": "[1]; with GABAA receptor antagonist gabazine", "value": "abolished"}, {"measurement": "UDCA-induced synchronization of firing with mifepristone and spironolactone", "setting": "[1]; with mifepristone 10 µM and spironolactone 10 µM", "value": "not affected"}, {"measurement": "IC50", "setting": "[2]", "value": "90 ± 5", "unit": "µM"}, {"measurement": "Hill coefficient nH of UDCA block", "setting": "β3γ2L GABAA receptors", "value": 0.62}, {"measurement": "IC50", "setting": "β3γ2L GABAA receptors; read-out: IC50 of block of histamine-evoked currents", "value": "232 ± 66", "unit": "µM"}, {"measurement": "relative amplitude of maximal GABA-responses", "setting": "[3]; UDCA 100 µM, n = 5", "value": "87±1 % of control"}, {"measurement": "IC50", "setting": "[3]; n = 4", "value": "330 ± 41", "unit": "µM"}, {"measurement": "serum peak UDCA concentration", "setting": "[4]", "value": "~18 ± 10", "unit": "µM"}, {"measurement": "sensitivity of TGR5 to UDCA", "setting": "TGR5", "value": "rather insensitive"}]}]}
